Data reported in patent US20240010635A1, “NOVEL INDIRUBIN DERIVATIVES HAVING HETEROBICYCLIC MOIETIES AND THE USE THEREOF” (priority 2022, published 2024).
Positions count from the first letter of the chain named.

Legend:
Format in all cases: biochemical
FLT3 D835Y = target: T1, FLT3 D835Y (Homo sapiens, UniProt P36888, D835Y); test: ADP-Glo kinase assay, FLT3 D835Y; settings: recombinant FLT3 (D835Y), 120 min room temperature, read-out: Enzyme activity (IC50, nM) FLT3 D835Y
T1 construct: Recombinant proteins containing the FLT3 and FLT3 (D835Y) domains were purchased from Promega; purchased Promega V4514
T1 sequence (P36888 610-943 D835Y limits assumed): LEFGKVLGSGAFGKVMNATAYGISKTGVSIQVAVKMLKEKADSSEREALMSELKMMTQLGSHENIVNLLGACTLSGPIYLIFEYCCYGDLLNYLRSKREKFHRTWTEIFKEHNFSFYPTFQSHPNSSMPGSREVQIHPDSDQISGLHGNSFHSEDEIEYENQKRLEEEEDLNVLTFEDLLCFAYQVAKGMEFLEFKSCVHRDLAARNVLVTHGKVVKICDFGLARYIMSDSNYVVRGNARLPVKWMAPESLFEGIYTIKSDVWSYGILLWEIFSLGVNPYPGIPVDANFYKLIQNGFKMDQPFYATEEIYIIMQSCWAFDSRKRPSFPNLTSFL
Experimental: FLT3 activity inhibition was measured by ADP-Glo kinase assay (Promega, cat #V9101). ADP-Glo kinase analysis method is an emission ADP detect method which measures kinase activity by quantification of ADP amount produced during kinase reaction and provides uniform high-throughput screening method.
(§1) Analysis performed in two steps. First, after kinase reaction, ADP-Glo™ reagent of equal volume was added to finish kinase reaction, and then the rest ATP was exhausted. Second, Kinase Detection Reagent was added to convert ADP to ATP and newly synthesized ATP was measured by luciferase/luciferin reaction at the same time. Generated light was measured by using luminometer. The measured luminescence amount can be applied to the ATP→ADP standard conversion curve to confirm the correlation with the ADP concentration.
Recombinant proteins containing the FLT3 and FLT3 (D835Y) domains were purchased from Promega (cat #V4064, cat #V4514), respectively. According to the manufacturer's instructions, optimal enzyme, ATP, and substrate concentration were established using the ADP-Glo™ Kinase Assay (Promega, USA). Kinase reaction buffer 5× (200 mM Tris-HCl, pH 7.5, 100 mM MgCl2, 0.5 mg/ml BSA) was diluted and used, and the diluted compound of the present invention (5×, 1 μl), FLT3 enzyme or FLT3/D835Y enzyme (2.5×, 2 μl) and substrate/ATP mixture (2.5×, 2 μl), were mixed sequentially and reacted at room temperature for 120 minutes. Then, ADP-Glo™ Reagent (5 μl) was added and reacted for 40 min at room temperature. Finally, after adding a reagent for detection (Kinase Detection Reagent, 10 μl), reacting at room temperature for 30 min, and then phosphorylation of substrate peptide was measured by measuring luciferase signal (Integration time 0.5-1 second) using SpectraMax ID5 reader (Molecular Devices LLC., San Jose, CA, USA). IC50 was calculated by nonlinear regression using Prism version 5.01 (GrapghPad).

RET V804L = target: T2, RET V804L (Homo sapiens, UniProt P07949, V804L); test: ADP-Glo kinase assay, RET V804L; settings: recombinant RET (V804L), 120 min room temperature, read-out: Enzyme activity (IC50, nM) RET V804L
T2 construct: Recombinant proteins containing RET wt, RET (M918T) and RET (V804L) domains were purchased from Promega; purchased Promega V4473
T2 sequence (P07949 724-1016 V804L limits assumed): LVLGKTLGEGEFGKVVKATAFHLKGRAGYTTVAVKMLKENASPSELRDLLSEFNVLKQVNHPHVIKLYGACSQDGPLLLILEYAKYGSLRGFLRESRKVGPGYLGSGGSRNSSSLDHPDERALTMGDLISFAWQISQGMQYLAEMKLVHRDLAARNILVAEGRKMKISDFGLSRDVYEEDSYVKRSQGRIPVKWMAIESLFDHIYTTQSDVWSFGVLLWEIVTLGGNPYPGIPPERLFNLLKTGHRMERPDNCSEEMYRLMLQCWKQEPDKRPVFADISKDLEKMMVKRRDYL
Experimental: as §1
(§2) Recombinant proteins containing RET wt, RET (M918T) and RET (V804L) domains were purchased from Promega (cat #V8061, cat #VA7274, cat #V4473), respectively. According to the manufacturer's instructions, optimal enzyme, ATP, and substrate concentration were established using ADP-Glo™ Kinase Assay (Promega, USA). […] Then, ADP-Glo™ Reagent (5 μl) was added and reacted at room temperature for further 40 min. Lastly, Kinase Detection Reagent (10 μl) was added and reacted for 30 min more at room temperature, and then phosphorylation of substrate peptide was measured by measuring luciferase signal (Integration time 0.5-1 second) using SpectraMax ID5 reader (Molecular Devices LLC., San Jose, CA, USA). IC50 was calculated by nonlinear regression using Prism version 5.01 (GrapghPad).

RET M918T = target: T3, RET M918T (Homo sapiens, UniProt P07949, M918T); test: ADP-Glo kinase assay, RET M918T; settings: recombinant RET (M918T), 120 min room temperature, read-out: Enzyme activity (IC50, nM) RET M918T
T3 construct: Recombinant proteins containing RET wt, RET (M918T) and RET (V804L) domains were purchased from Promega; purchased Promega VA7274
T3 sequence (P07949 724-1016 M918T limits assumed): T2 sequence (P07949 724-1016 V804L limits assumed) with L81V, M195T
Experimental: as §1, §2

Row | Structure (SMILES) | IC50 (FLT3 D835Y) [nM] | IC50 (RET V804L) [nM] | IC50 (RET M918T) [nM]
1 | O=C1Nc2ccc(F)cc2/C1=C1/Nc2ccccc2/C1=N\OCCN1CC2(CNC2)C1 [Example 6, (2Z,3E)-3-((2-(2,6-diazaspiro[3.3]heptan-2-yl)ethoxy)imino)-5′-fluoro-[2,3′-biindolinylidene]-2′-one] | 0.488 | 0.797 | 0.67
2 | O=C1Nc2ccc(F)cc2/C1=C1/Nc2ccccc2/C1=N\OCC(=O)N1CC2(CNC2)C1 [Example 18, (2Z,3E)-5′-fluoro-3-((2-oxo-2-(2,6-diazaspiro[3.3]heptan-2-yl)ethoxy)imino)-[2,3′-biindolinylidene]-2′-one] | 0.306 | 0.657 | 0.921
3 | O=C1Nc2ccc(Br)cc2/C1=C1/Nc2ccccc2/C1=N\OCCN1C[C@H]2C[C@@H]1CN2 [Example 13, (2Z,3E)-3-((2-((1R,4R)-2,5-diazabicyclo[2.2.1]heptan-2-yl)ethoxy)imino)-5′-bromo-[2,3′-biindolinylidene]-2′-one] | 0.686 | 0.376 | 1.03
4 | O=C1Nc2ccccc2/C1=C1/Nc2ccccc2/C1=N\OCC(=O)N1C[C@H]2C[C@@H]1CN2 [Example 17, (2Z,3E)-3-((2-((1R,4R)-2,5-diazabicyclo[2.2.1]heptan-2-yl)-2-oxoethoxy)imino)-[2,3′-biindolinylidene]-2′-one] | 0.552 | 0.904 | 1.44
5 | O=C(CO/N=C1/C(=C2/C(=O)Nc3ccc(F)cc32)Nc2ccccc21)N[C@H]1[C@@H]2CNC[C@@H]21 [Example 19, N-((1R,5S,6s)-3-azabicyclo[3.1.0]hexan-6-yl)-2-(((E)-((Z)-5′-fluoro-2′-oxo-[2,3′-biindolinylidene]-3-ylidene)amino)oxy)acetamide] | 0.511 | 0.419 | 1.39
6 | O=C1Nc2ccccc2/C1=C1/Nc2ccccc2/C1=N\OCCN1C[C@@H]2C[C@H]1CN2 [Example 5, (2Z,3E)-3-((2-((1S,4S)-2,5-diazabicyclo[2.2.1]heptan-2-yl)ethoxy)imino)-[2,3′-biindolinylidene]-2′-one] | 0.135 | 0.851 | 0.771
7 | N[C@@H]1[C@H]2CN(CCO/N=C3/C(=C4/C(=O)Nc5ccc(F)cc54)Nc4ccccc43)C[C@@H]12 [Example 8, (2Z,3E)-3-((2-((1R,5S,6s)-6-amino-3-azabicyclo[3.1.0]hexan-3-yl)ethoxy)imino)-5′-fluoro-[2,3′-biindolinylidene]-2′-one] | 0.303 | 0.54 | 0.344
8 | O=C1Nc2ccc(F)cc2/C1=C1/Nc2ccccc2/C1=N\OCCN1C[C@H]2C[C@@H]1CN2 [Example 9, (2Z,3E)-3-((2-((1R,4R)-2,5-diazabicyclo[2.2.1]heptan-2-yl)ethoxy)imino)-5′-fluoro-[2,3′-biindolinylidene]-2′-one] | 0.667 | 0.785 | 1.02
9 | O=C1Nc2ccccc2/C1=C1/Nc2ccccc2/C1=N\OCCN1CC2(CNC2)C1 [Example 1, (2Z,3E)-3-((2-(2,6-diazaspiro[3.3]heptan-2-yl)ethoxy)imino)-[2,3′-biindolinylidene]-2′-one] | 0.329 | 1.3 | 0.449
10 | O=C1Nc2ccc(F)cc2/C1=C1/Nc2ccccc2/C1=N\OCC(=O)N1C[C@H]2C[C@@H]1CN2 [Example 20, (2Z,3E)-3-((2-((1R,4R)-2,5-diazabicyclo[2.2.1]heptan-2-yl)-2-oxoethoxy)imino)-5′-fluoro-[2,3′-biindolinylidene]-2′-one] | 0.271 | 1.04 | 1.19
11 | O=C1Nc2ccccc2/C1=C1/Nc2ccccc2/C1=N\OCC(=O)N1CC2(CNC2)C1 [Example 15, (2Z,3E)-3-((2-oxo-2-(2,6-diazaspiro[3.3]heptan-2-yl)ethoxy)imino)-[2,3′-biindolinylidene]-2′-one] | 0.798 | 0.37 | 1.08
12 | O=C1Nc2ccccc2/C1=C1/Nc2ccccc2/C1=N\OCCN1C[C@H]2C[C@@H]1CN2 [Example 4, (2Z,3E)-3-((2-((1R,4R)-2,5-diazabicyclo[2.2.1]heptan-2-yl)ethoxy)imino)-[2,3′-biindolinylidene]-2′-one] | 0.216 | 0.212 | 0.348
13 | O=C1Nc2ccc(Cl)cc2/C1=C1/Nc2ccccc2/C1=N\OCCN1C[C@H]2C[C@@H]1CN2 [Example 11, (2Z,3E)-3-((2-((1R,4R)-2,5-diazabicyclo[2.2.1]heptan-2-yl)ethoxy)imino)-5′-chloro-[2,3′-biindolinylidene]-2′-one] | 0.553 | 1.02 | 1.27
14 | N[C@@H]1[C@H]2CN(CCO/N=C3/C(=C4/C(=O)Nc5ccccc54)Nc4ccccc43)C[C@@H]12 [Example 3, (2Z,3E)-3-((2-((1R,5S,6s)-6-amino-3-azabicyclo[3.1.0]hexan-3-yl)ethoxy)imino)-[2,3′-biindolinylidene]-2′-one] | 0.303 | 1.27 | 1.02
15 | O=C1Nc2ccccc2/C1=C1/Nc2ccccc2/C1=N\OCCN[C@H]1[C@@H]2CNC[C@@H]21 [Example 2, (2Z,3E)-3-((2-((1R,5S,6s)-3-azabicyclo[3.1.0]hexan-6-ylamino)ethoxy)imino)-[2,3′-biindolinylidene]-2′-one] | 0.524 | 0.553 | 1.25
16 | O=C(CO/N=C1/C(=C2/C(=O)Nc3ccccc32)Nc2ccccc21)N[C@H]1[C@@H]2CNC[C@@H]21 [Example 16, N-((1R,5S,6s)-3-azabicyclo[3.1.0]hexan-6-yl)-2-(((E)-((Z)-2′-oxo-[2,3′-biindolinylidene]-3-ylidene)amino)oxy)acetamide] | 0.661 | 0.472 | 1.19
17 | O=C1Nc2ccc(F)cc2/C1=C1/Nc2ccccc2/C1=N\OCCN1C[C@@H]2C[C@H]1CN2 [Example 10, (2Z,3E)-3-((2-((1S,4S)-2,5-diazabicyclo[2.2.1]heptan-2-yl)ethoxy)imino)-5′-fluoro-[2,3′-biindolinylidene]-2′-one] | 0.428 | 0.511 | 0.617
